Test system: Target C
Assay: RT-qPCR splicing assay panel, Target C canonical junction (CJ) mRNA
Format: cell-based, human
Conditions: Homo sapiens; Table 5 panel; canonical junction qPCR; compound concentration having 50% response in CJ decrease; read-out: Target C IC50 (decrease in CJ mRNA levels)
In short: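 Read-out is canonical exon-exon junction mRNA quantified by RT-qPCR against a GAPDH, GUSB or PPIA control. Cells (A673 or K562) received compound for 24 h, top final dose 10 uM in an 11-point 3-fold series.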

| Structure (SMILES) | IC50 [nM] |
| --- | --- |
| COc1cc(-c2cc(C)c3nc(C)cn3n2)cc2ccn(C3CCNCC3)c(=O)c12 [Compound 399, 6-{2,8-dimethylimidazo[1,2-b]pyridazin-6-yl}-8-methoxy-2-(piperidin-4-yl)isoquinolin-1-one] | 1000 to 10000 |
| Cc1cn2nc(-c3cc(F)c4c(=O)n(C5CCN(C)CC5)ccc4c3)cc(C)c2n1 [Compound 400, 6-(2,8-dimethylimidazo[1,2-b]pyridazin-6-yl)-8-fluoro-2-(1-methylpiperidin-4-yl)isoquinolin-1(2H)-one] | 100 to 1000 |
| CCN1CCC(n2ccc3cc(-c4cc(C)c5nc(C)cn5n4)ccc3c2=O)CC1 [Compound 402, 6-{2,8-dimethylimidazo[1,2-b]pyridazin-6-yl}-2-(1-ethylpiperidin-4-yl)isoquinolin-1-one] | 100 to 1000 |
| Cc1cn2cc(-c3ccc4c(=O)n([C@H]5CCCNC5)ccc4c3)cc(F)c2n1 [Compound 404, 6-{8-fluoro-2-methylimidazo[1,2-a]pyridin-6-yl}-2-[(3S)-piperidin-3-yl]isoquinolin-1-one] | > 10000 |
| Cc1cn2cc(-c3cc(F)c4c(=O)n(C5CCNC6(CC6)C5)ccc4c3)cc(Cl)c2n1 (centres unmarked) [Compound 413, 2-{4-azaspiro[2.5]octan-7-yl}-6-{8-chloro-2-methylimidazo[1,2-a]pyridin-6-yl}-8-fluoroisoquinolin-1-one] | 100 to 1000 |
| Cc1cn2cc(-c3cc(F)c4c(=O)n(C5CCNC6(CC6)C5)ccc4c3)cc(C)c2n1 (centres unmarked) [Compound 416, 2-{4-azaspiro[2.5]octan-7-yl}-6-{2,8-dimethylimidazo[1,2-a]pyridin-6-yl}-8-fluoroisoquinolin-1-one] | 100 to 1000 |
| Cc1nc2c(F)cc(-c3cc(F)c4c(=O)n(C5CCNC6(CC6)C5)ccc4c3)cc2o1 (centres unmarked) [Compound 417, 2-{4-azaspiro[2.5]octan-7-yl}-8-fluoro-6-(4-fluoro-2-methyl-1,3-benzoxazol-6-yl)isoquinolin-1-one] | 100 to 1000 |
| Cc1cn2cc(-c3cc(F)c4c(=O)n(C5CCNC6(CC6)C5)ccc4c3)c(O)c(C)c2n1 (centres unmarked) [Compound 421, 2-{4-azaspiro[2.5]octan-7-yl}-8-fluoro-6-{7-hydroxy-2,8-dimethylimidazo[1,2-a]pyridin-6-yl}isoquinolin-1-one] | > 10000 |
| Cc1cn2nc(-c3cc(C)c4c(=O)n(C5CCNC6(CC6)C5)ncc4c3)cc(C)c2n1 (centres unmarked) [Compound 423, 6-(2,8-dimethylimidazo[1,2-b]pyridazin-6-yl)-8-methyl-2-(4-azaspiro[2.5]octan-7-yl)phthalazin-1(2H)-one] | 100 to 1000 |
| Cc1cn2cc(-c3cc(F)c4c(=O)n(C5CCNC6(CC6)C5)ccc4c3)ncc2n1 (centres unmarked) [Compound 428, 8-fluoro-6-(2-methylimidazo[1,2-a]pyrazin-6-yl)-2-(4-azaspiro[2.5]octan-7-yl)isoquinolin-1(2H)-one] | 1000 to 10000 |
| Cc1cn2nc(-c3cc(O)c4c(=O)n(C5CCNC5)ccc4c3)cc(C)c2n1 (centres unmarked) [Compound 432, 6-{2,8-dimethylimidazo[1,2-b]pyridazin-6-yl}-8-hydroxy-2-(pyrrolidin-3-yl)isoquinolin-1-one] | 1000 to 10000 |
| Cc1cn2cc(-c3ccc4c(=O)n(C5CCNCC5)cc(C)c4c3)cc(F)c2n1 [Compound 440, 6-{8-fluoro-2-methylimidazo[1,2-a]pyridin-6-yl}-4-methyl-2-(piperidin-4-yl)isoquinolin-1-one] | 100 to 1000 |
| Cc1cn2cc(-c3ccc4c(=O)n(C5CCNC5)cc(C)c4c3)cc(F)c2n1 (centres unmarked) [Compound 441, 6-{8-fluoro-2-methylimidazo[1,2-a]pyridin-6-yl}-4-methyl-2-(pyrrolidin-3-yl)isoquinolin-1-one] | > 10000 |
| Cc1cn2cc(-c3ccc4c(=O)n(C5CCNC5)cc(C)c4c3)cc(C#N)c2n1 (centres unmarked) [Compound 442, 2-methyl-6-[4-methyl-1-oxo-2-(pyrrolidin-3-yl)isoquinolin-6-yl]imidazo[1,2-a]pyridine-8-carbonitrile] | > 10000 |
| Cc1cn2nc(-c3ccc4c(=O)n([C@H]5CCNC6(CC6)C5)ccc4c3)cc(C)c2n1 [Compound 445] | < 100 |
| Cc1cn2nc(-c3cc(F)c4c(=O)n([C@@H]5CCNC6(CC6)C5)ncc4c3)cc(C)c2n1 [Compound 446] | < 100 |
| Cc1cn2nc(-c3cc(F)c4c(=O)n([C@H]5CCNC6(CC6)C5)ncc4c3)cc(C)c2n1 [Compound 447] | < 100 |
| Cc1cn2nc(-c3cc4ccn(C5CCNCC5)c(=O)c4cc3O)cc(C)c2n1 [Compound 448, 6-{2,8-dimethylimidazo[1,2-b]pyridazin-6-yl}-7-hydroxy-2-(piperidin-4-yl)isoquinolin-1-one] | < 100 |
| COc1cc2c(=O)n(C3CCNCC3)ccc2cc1-c1cc(C)c2nc(C)cn2n1 [Compound 449, 6-{2,8-dimethylimidazo[1,2-b]pyridazin-6-yl}-7-methoxy-2-(piperidin-4-yl)isoquinolin-1-one] | > 10000 |
| Cc1cn2cc(-c3ccc4c(=O)n([C@@H]5CCNC5)cc(C)c4c3)cc(F)c2n1 [Compound 452, (R)-6-(8-fluoro-2-methylimidazo[1,2-a]pyridin-6-yl)-4-methyl-2-(pyrrolidin-3-yl)isoquinolin-1(2H)-one] | > 10000 |
| Cc1cn2c(n1)CCC(c1ccc3c(=O)n(C4CCNCC4)ccc3c1)C2 (centres unmarked) [Compound 453, 6-{2-methyl-5H,6H,7H,8H-imidazo[1,2-a]pyridin-6-yl}-2-(piperidin-4-yl)isoquinolin-1-one] | > 10000 |
| Cc1cn2cc(-n3ccc4cc(N5C[C@@H](C)N[C@@H](C)C5)ccc4c3=O)nc(C)c2n1 [Compound 454, 2-{2,8-dimethylimidazo[1,2-a]pyrazin-6-yl}-6-[(3R,5S)-3,5-dimethylpiperazin-1-yl]isoquinolin-1-one] | > 10000 |

Results, then the compound that gave them:

| IC50 [nM] | Structure (SMILES) |
| --- | --- |
| < 100 | Cc1cn2nc(-c3cc(Cl)c4c(=O)n(C5CCNCC5)ccc4c3)cc(C)c2n1 [Compound 390, 8-chloro-6-{2,8-dimethylimidazo[1,2-b]pyridazin-6-yl}-2-(piperidin-4-yl)isoquinolin-1-one; trifluoroacetaldehyde] |
| < 100 | Cc1cn2nc(-c3cc(O)c4c(=O)n(C5CCNCC5)ccc4c3)cc(C)c2n1 [Compound 391, 6-(2,8-dimethylimidazo[1,2-b]pyridazin-6-yl)-8-hydroxy-2-(piperidin-4-yl)isoquinolin-1(2H)-one] |
| 1000 to 10000 | CC(=O)c1cc(-c2cc(F)c3c(=O)n(C4CCNCC4)ccc3c2)cn2cc(C)nc12 [Compound 393, 6-{8-acetyl-2-methylimidazo[1,2-a]pyridin-6-yl}-8-fluoro-2-(piperidin-4-yl)isoquinolin-1-one 2,2,2-trifluoroacetate] |
| 100 to 1000 | Cn1cc2cc(-c3cc(F)c4c(=O)n(C5CCNCC5)ccc4c3)cc(C#N)c2n1 [Compound 394, 5-(8-fluoro-1-oxo-2-(piperidin-4-yl)-1,2-dihydroisoquinolin-6-yl)-2-methyl-2H-indazole-7-carbonitrile] |
| > 10000 | Cc1cn2cc(-c3cc(S(C)(=O)=O)c4c(=O)n(C5CCNCC5)ccc4c3)cc(F)c2n1 [Compound 409, 6-(8-fluoro-2-methylimidazo[1,2-a]pyridin-6-yl)-8-(methylsulfonyl)-2-(piperidin-4-yl)isoquinolin-1(2H)-one] |
| < 100 | Cn1cc2cc(-c3cc(F)c4c(=O)n(C5CCNC6(CC6)C5)ccc4c3)cc(F)c2n1 (centres unmarked) [Compound 412] |
| > 10000 | Cn1cc2cc(-c3cc(F)c4c(=O)n(C5CCNC6(CC6)C5)ccc4c3)c(O)cc2n1 (centres unmarked) [Compound 414, 2-{4-azaspiro[2.5]octan-7-yl}-8-fluoro-6-(6-hydroxy-2-methylindazol-5-yl)isoquinolin-1-one] |
| 100 to 1000 | Cc1cc(-c2cc(F)c3c(=O)n(C4CCNC5(CC5)C4)ccc3c2)cc2cn(C)nc12 (centres unmarked) [Compound 415, 2-{4-azaspiro[2.5]octan-7-yl}-6-(2,7-dimethylindazol-5-yl)-8-fluoroisoquinolin-1-one] |
| 100 to 1000 | Cc1nc2c(C)cc(-c3cc(F)c4c(=O)n(C5CCNC6(CC6)C5)ccc4c3)cc2o1 (centres unmarked) [Compound 418, 2-{4-azaspiro[2.5]octan-7-yl}-6-(2,4-dimethyl-1,3-benzoxazol-6-yl)-8-fluoroisoquinolin-1-one] |
| > 10000 | Cc1c(O)c(-c2cc(F)c3c(=O)n(C4CCNC5(CC5)C4)ccc3c2)cc2cn(C)nc12 (centres unmarked) [Compound 419, 2-{4-azaspiro[2.5]octan-7-yl}-8-fluoro-6-(6-hydroxy-2,7-dimethylindazol-5-yl)isoquinolin-1-one] |
| 1000 to 10000 | Cn1cc2cc(-c3cc(F)c4c(=O)n(C5CCNC6(CC6)C5)ccc4c3)c(O)c(F)c2n1 (centres unmarked) [Compound 420, 2-{4-azaspiro[2.5]octan-7-yl}-8-fluoro-6-(7-fluoro-6-hydroxy-2-methylindazol-5-yl)isoquinolin-1-one] |
| > 10000 | Cc1cc(-c2cc(F)c3c(=O)n(C4CCNC5(CC5)C4)ccc3c2)cc2c1nc(C)n2C (centres unmarked) [Compound 429] |
| > 10000 | Cc1nc2c(F)cc(-c3cc(F)c4c(=O)n(C5CCNC6(CC6)C5)ccc4c3)cc2n1C (centres unmarked) [Compound 430, 8-fluoro-6-(4-fluoro-1,2-dimethyl-1H-benzo[d]imidazol-6-yl)-2-(4-azaspiro[2.5]octan-7-yl)isoquinolin-1(2H)-one] |
| 100 to 1000 | Cc1cc(-c2cc(F)c3c(=O)n(C4CCNC5(CC5)C4)ccc3c2)nc2cn(C)nc12 (centres unmarked) [Compound 431] |
| 100 to 1000 | Cc1cn2cc(-c3cc(O)c4c(=O)n(C5CCNC5)ccc4c3)cc(C#N)c2n1 (centres unmarked) [Compound 433, 6-(8-hydroxy-1-oxo-2-(pyrrolidin-3-yl)-1,2-dihydroisoquinolin-6-yl)-2-methylimidazo[1,2-a]pyridine-8-carbonitrile] |
| > 10000 | Cc1cn2cc(-c3cc(F)c4c(=O)n(C5CCNC5)ccc4c3)cc(C#N)c2n1 (centres unmarked) [Compound 434, 6-[8-fluoro-1-oxo-2-(pyrrolidin-3-yl)isoquinolin-6-yl]-2-methylimidazo[1,2-a]pyridine-8-carbonitrile] |
